Results published in US20250197406A1, “INDAZOLES AS HEMATOPOIETIC PROGENITOR KINASE 1 (HPK1) INHIBITORS AND METHODS FOR USING SAME” (1ST Biotherapeutics, Inc., priority 2022, published 2025).
Structures can show the parent of a compound that is named as a salt.

Molecular target: recombinant human HPK1 (Homo sapiens (Human), UniProt Q92918)
Test: HPK1 kinase assay (Promega ADP-Glo kinase assay)
Assay type: biochemical
Details: In vitro activity against HPK1, 5 ng HPK1, MBP substrate, ATP 25 μM, 30° C. 40 minutes
Summary of the method: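 IC50 was derived from percent inhibition across a range of compound concentrations. Recombinant human HPK1 (5 ng) phosphorylated MBP for 40 min at 30 °C in Tris buffer pH 7.5 with 20 mM MgCl2, with ATP added as a 25 µM solution and 0.5% DMSO. ADP formed was read by ADP-Glo luminescence.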

Chain of recombinant human HPK1 (Q92918 whole entry): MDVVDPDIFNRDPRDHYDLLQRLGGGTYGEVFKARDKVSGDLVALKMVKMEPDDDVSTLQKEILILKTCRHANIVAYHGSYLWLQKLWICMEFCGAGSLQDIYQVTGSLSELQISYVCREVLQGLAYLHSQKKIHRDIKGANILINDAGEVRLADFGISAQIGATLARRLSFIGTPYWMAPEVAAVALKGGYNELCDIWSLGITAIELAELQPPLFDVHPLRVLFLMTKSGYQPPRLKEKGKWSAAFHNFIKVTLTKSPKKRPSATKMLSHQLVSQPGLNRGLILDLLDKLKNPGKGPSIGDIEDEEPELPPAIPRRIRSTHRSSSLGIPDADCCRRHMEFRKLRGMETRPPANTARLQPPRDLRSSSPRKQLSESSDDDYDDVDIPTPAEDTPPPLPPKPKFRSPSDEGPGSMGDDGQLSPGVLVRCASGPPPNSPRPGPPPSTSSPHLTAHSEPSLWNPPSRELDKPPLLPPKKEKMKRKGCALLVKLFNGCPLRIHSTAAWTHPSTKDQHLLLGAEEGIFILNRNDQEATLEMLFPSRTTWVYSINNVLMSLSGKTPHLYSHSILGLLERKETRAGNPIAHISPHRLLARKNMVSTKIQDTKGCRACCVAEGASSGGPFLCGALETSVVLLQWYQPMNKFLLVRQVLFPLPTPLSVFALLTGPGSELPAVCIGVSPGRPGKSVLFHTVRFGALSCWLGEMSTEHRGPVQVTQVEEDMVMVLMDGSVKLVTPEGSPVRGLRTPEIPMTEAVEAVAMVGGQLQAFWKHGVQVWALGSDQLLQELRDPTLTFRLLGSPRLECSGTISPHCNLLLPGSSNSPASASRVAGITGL

SMILES | IC50
CC(C)Nc1c(F)c(Cl)c(-c2cn3cc(NC(=O)Cc4cocn4)nc3cn2)c2cn[nH]c12 [Example 144, N-(6-(5-chloro-6-fluoro-7-(isopropylamino)-1H-indazol-4-yl)imidazo[1,2-a]pyrazin-2-yl)-2-(oxazol-4-yl)acetamide] | < 100 nM
N#Cc1c(F)cc2[nH]ncc2c1-c1cn2cc(NC(=O)[C@@H]3C[C@@H]3F)nc2cn1 [Example 72, (1S,2S)-N-(6-(5-cyano-6-fluoro-1H-indazol-4-yl)imidazo[1,2-a]pyrazin-2-yl)-2-fluorocyclopropane-1-carboxamide] | 501 to 1000 nM
CCCCC(=O)Nc1cn2cc(-c3c(Cl)c(F)c(NC(C)C)c4[nH]ncc34)ncc2n1 [Example 117, N-(6-(5-chloro-6-fluoro-7-(isopropylamino)-1H-indazol-4-yl)imidazo[1,2-a]pyrazin-2-yl)pentanamide] | < 100 nM
CC(=O)Nc1cn2cc(-c3c(Cl)c(F)c(CN4CCC(O)C4)c4[nH]ncc34)ncc2n1 (stereo not shown) [Example 151, N-(6-(5-chloro-6-fluoro-7-((3-hydroxypyrrolidin-1-yl)methyl)-1H-indazol-4-yl)imidazo[1,2-a]pyrazin-2-yl)acetamide] | 501 to 1000 nM
C[C@@H](NC(=O)C(F)(F)F)c1c(F)c(Cl)c(-c2cn3cc(NC(=O)[C@@H]4C[C@@H]4F)nc3cn2)c2cn[nH]c12 [Example 137, (1S,2S)-N-(6-(5-chloro-6-fluoro-7-((R)-1-(2,2,2-trifluoroacetamido)ethyl)-1H-indazol-4-yl)imidazo[1,2-a]pyrazin-2-yl)-2-fluorocyclopropane-1-carboxamide] | < 100 nM
Cc1c(F)c(C2CCOC2)c2[nH]ncc2c1-c1cn2cc(NC(=O)[C@@H]3C[C@@H]3F)nc2cn1 (stereo partly drawn) [Example 6, (1S,2S)-2-fluoro-N-(6-(6-fluoro-5-methyl-7-(tetrahydrofuran-3-yl)-1H-indazol-4-yl)imidazo[1,2-a]pyrazin-2-yl)cyclopropane-1-carboxamide] | < 100 nM
CC(C)Nc1c(F)c(C(F)F)c(-c2cn3cc(NC(=O)[C@@H]4C[C@@H]4C#N)nc3cn2)c2cn[nH]c12 [Example 154, (1R,2S)-2-cyano-N-(6-(5-(difluoromethyl)-6-fluoro-7-(isopropylamino)-1H-indazol-4-yl)imidazo[1,2-a]pyrazin-2-yl)cyclopropane-1-carboxamide] | < 100 nM
CCOC(C)c1c(F)c(C)c(-c2cn3cc(NC(=O)[C@@H]4C[C@@H]4F)nc3cn2)c2cn[nH]c12 (stereo partly drawn) [Example 3, (1S,2S)-N-(6-(7-(1-ethoxyethyl)-6-fluoro-5-methyl-1H-indazol-4-yl)imidazo[1,2-a]pyrazin-2-yl)-2-fluorocyclopropane-1-carboxamide] | 101 to 500 nM
CC(C)Nc1c(F)c(Cl)c(-c2cn3cc(NC(=O)C4COC4)nc3cn2)c2cn[nH]c12 [Example 131, N-(6-(5-chloro-6-fluoro-7-(isopropylamino)-1H-indazol-4-yl)imidazo[1,2-a]pyrazin-2-yl)oxetane-3-carboxamide] | < 100 nM
CC(C)N(c1c(F)c(Cl)c(-c2cn3cc(NC(=O)[C@@H]4C[C@@H]4F)nc3cn2)c2cn[nH]c12)C1OC(C(=O)O)C(O)C(O)C1O (stereo partly drawn) [Example 14, 6-((5-chloro-6-fluoro-4-(2-((1S,2S)-2-fluorocyclopropane-1-carboxamido)imidazo[1,2-a]pyrazin-6-yl)-1H-indazol-7-yl)(isopropyl)amino)-3,4,5-trihydroxytetrahydro-2H-pyran-2-carboxylic acid] | < 100 nM
NC(c1c(F)c(C(F)F)c(-c2cn3cc(NC(=O)[C@@H]4C[C@@H]4F)nc3cn2)c2cn[nH]c12)C1CC1 (stereo partly drawn) [Example 41, (1S,2S)-N-(6-(7-(amino(cyclopropyl)methyl)-5-(difluoromethyl)-6-fluoro-1H-indazol-4-yl)imidazo[1,2-a]pyrazin-2-yl)-2-fluorocyclopropane-1-carboxamide] | < 100 nM
CN(C)c1c(F)c(C(F)(F)F)c(-c2cn3cc(NC(=O)[C@H]4C[C@@H]4F)nc3cn2)c2cn[nH]c12 [Example 31, (1R,2S)-N-(6-(7-(dimethylamino)-6-fluoro-5-(trifluoromethyl)-1H-indazol-4-yl)imidazo[1,2-a]pyrazin-2-yl)-2-fluorocyclopropane-1-carboxamide] | < 100 nM
Cc1c(F)c(C2=CC(O)CC2)c2[nH]ncc2c1-c1cn2cc(NC(=O)[C@@H]3C[C@@H]3F)nc2cn1 (stereo partly drawn) [Example 15, (1S,2S)-2-fluoro-N-(6-(6-fluoro-7-(3-hydroxycyclopent-1-en-1-yl)-5-methyl-1H-indazol-4-yl)imidazo[1,2-a]pyrazin-2-yl)cyclopropane-1-carboxamide] | < 100 nM
CC(C)Nc1c(F)c(Cl)c(-c2cn3cc(NC(=O)CN(C)C)nc3cn2)c2cn[nH]c12 [Example 103, N-(6-(5-chloro-6-fluoro-7-(isopropylamino)-1H-indazol-4-yl)imidazo[1,2-a]pyrazin-2-yl)-2-(dimethylamino)acetamide] | < 100 nM
CC(=O)Nc1cn2cc(-c3c(Cl)c(F)c(C(C)N4CC(O)C4)c4[nH]ncc34)ncc2n1 (stereo not shown) [Example 161, N-(6-(5-chloro-6-fluoro-7-(1-(3-hydroxyazetidin-1-yl)ethyl)-1H-indazol-4-yl)imidazo[1,2-a]pyrazin-2-yl)acetamide] | 501 to 1000 nM
CC(=O)Nc1cn2cc(-c3c(Cl)c(F)c([C@H](C)N[S@@+]([O-])C(C)(C)C)c4[nH]ncc34)ncc2n1 [Example 134, N-(6-(7-((S)-1-(((S)-tert-butylsulfinyl)amino)ethyl)-5-chloro-6-fluoro-1H-indazol-4-yl)imidazo[1,2-a]pyrazin-2-yl)acetamide] | 101 to 500 nM
CC(NC=O)c1c(F)c(C(F)(F)F)c(-c2cn3cc(NC(=O)[C@@H]4C[C@@H]4F)nc3cn2)c2cn[nH]c12 (stereo partly drawn) [Example 96, (1S,2S)-2-fluoro-N-(6-(6-fluoro-7-(1-formamidoethyl)-5-(trifluoromethyl)-1H-indazol-4-yl)imidazo[1,2-a]pyrazin-2-yl)cyclopropane-1-carboxamide] | < 100 nM
COC(=O)c1c(F)c(NC(C)C)c2[nH]ncc2c1-c1cn2cc(NC(=O)[C@@H]3C[C@@H]3F)nc2cn1 [Example 59, methyl 6-fluoro-4-(2-((1S,2S)-2-fluorocyclopropane-1-carboxamido)imidazo[1,2-a]pyrazin-6-yl)-7-(isopropylamino)-1H-indazole-5-carboxylate] | < 100 nM
CCC(=O)Nc1cn2cc(-c3c(OC)c(F)c(NC(C)C)c4[nH]ncc34)ncc2n1 [Example 162, N-(6-(6-fluoro-7-(isopropylamino)-5-methoxy-1H-indazol-4-yl)imidazo[1,2-a]pyrazin-2-yl)propionamide] | < 100 nM
CC(=O)Nc1cn2cc(-c3c(Cl)c(F)c([C@H](C)NC(=O)C(F)(F)F)c4[nH]ncc34)ncc2n1 [Example 138, (S)-N-(1-(4-(2-acetamidoimidazo[1,2-a]pyrazin-6-yl)-5-chloro-6-fluoro-1H-indazol-7-yl)ethyl)-2,2,2-trifluoroacetamide] | < 100 nM
O=C(Nc1cn2cc(-c3c(Cl)c(F)c(OC4CNC4)c4[nH]ncc34)ncc2n1)[C@@H]1C[C@@H]1F [Example 143, (1S,2S)-N-(6-(7-(azetidin-3-yloxy)-5-chloro-6-fluoro-1H-indazol-4-yl)imidazo[1,2-a]pyrazin-2-yl)-2-fluorocyclopropane-1-carboxamide formate] | 501 to 1000 nM
CC(CO)c1c(F)c(C(F)(F)F)c(-c2cn3cc(NC(=O)[C@@H]4C[C@@H]4F)nc3cn2)c2cn[nH]c12 (stereo partly drawn) [Example 85, (1S,2S)-2-fluoro-N-(6-(6-fluoro-7-(1-hydroxypropan-2-yl)-5-(trifluoromethyl)-1H-indazol-4-yl)imidazo[1,2-a]pyrazin-2-yl)cyclopropane-1-carboxamide] | < 100 nM
Cc1c(F)c(C(C)CN(C)C)c2[nH]ncc2c1-c1cn2cc(NC(=O)[C@@H]3C[C@@H]3F)nc2cn1 (stereo partly drawn) [Example 13, (1S,2S)-N-(6-(7-(1-(dimethylamino)propan-2-yl)-6-fluoro-5-methyl-1H-indazol-4-yl)imidazo[1,2-a]pyrazin-2-yl)-2-fluorocyclopropane-1-carboxamide] | 101 to 500 nM
CC(C)Nc1c(F)c(Cl)c(-c2cn3cc(NC(=O)N4CCOCC4)nc3cn2)c2cn[nH]c12 [Example 84, N-(6-(5-chloro-6-fluoro-7-(isopropylamino)-1H-indazol-4-yl)imidazo[1,2-a]pyrazin-2-yl)morpholine-4-carboxamide] | < 100 nM
C[C@@H](N[S@+]([O-])C(C)(C)C)c1c(F)c(Cl)c(-c2cn3cc(NC(=O)[C@@H]4C[C@@H]4F)nc3cn2)c2cn[nH]c12 [Example 133, (1S,2S)-N-(6-(7-((R)-1-(((R)-tert-butylsulfinyl)amino)ethyl)-5-chloro-6-fluoro-1H-indazol-4-yl)imidazo[1,2-a]pyrazin-2-yl)-2-fluorocyclopropane-1-carboxamide] | < 100 nM
COc1c(F)c(NC(C)C)c2[nH]ncc2c1-c1cn2cc(NC(=O)[C@@H]3C[C@@H]3C#N)nc2cn1 [Example 164, (1R,2S)-2-cyano-N-(6-(6-fluoro-7-(isopropylamino)-5-methoxy-1H-indazol-4-yl)imidazo[1,2-a]pyrazin-2-yl)cyclopropane-1-carboxamide] | < 100 nM
CC(=O)Nc1cn2cc(-c3c(C(F)F)c(F)c(NC(C)C)c4[nH]ncc34)ncc2n1 [Example 153, N-(6-(5-(difluoromethyl)-6-fluoro-7-(isopropylamino)-1H-indazol-4-yl)imidazo[1,2-a]pyrazin-2-yl)acetamide] | < 100 nM
CCC(=O)Nc1cn2cc(-c3c(C(F)F)c(F)c(NC(C)C)c4[nH]ncc34)ncc2n1 [Example 155, N-(6-(5-(difluoromethyl)-6-fluoro-7-(isopropylamino)-1H-indazol-4-yl)imidazo[1,2-a]pyrazin-2-yl)propionamide] | < 100 nM
